# Experimental data reported in paper PMC11728000, “Antitumor Activity and Multi-Target Mechanism of Phenolic Schiff Bases Bearing Methanesulfonamide Fragments: Cell Cycle Analysis and a Molecular Modeling Study” (International Journal of Molecular Sciences, 2024).
# Read-outs that look alike come from different tables or passages of the source.
# How the values were obtained:
# [1] = test system: HL-60(TB); parameters: method as in https://dtp.cancer.gov/dtpstandard/dwindex/index.jsp; details: ref https://dtp.cancer.gov/dtpstandard/dwindex/index.jsp; cited from earlier work
# [2] = test system: RPMI-8226; parameters: method as in https://dtp.cancer.gov/dtpstandard/dwindex/index.jsp; details: PRMI-8226; ref https://dtp.cancer.gov/dtpstandard/dwindex/index.jsp; cited from earlier work
# [3] = test system: SK-MEL-5; parameters: method as in https://dtp.cancer.gov/dtpstandard/dwindex/index.jsp; details: ref https://dtp.cancer.gov/dtpstandard/dwindex/index.jsp; cited from earlier work
# [4] = test system: CCRF-CEM; assay: NCI anticancer screening (SRB), Leukemia subpanel; format: cell-based, human; details: for GI%: 10.0 µM in one dose
# [5] = test system: HL-60(TB); assay: NCI anticancer screening (SRB), Leukemia subpanel; format: cell-based, human; details: for GI%: 10.0 µM in one dose
# [6] = test system: K-562; assay: NCI anticancer screening (SRB), Leukemia subpanel; format: cell-based, human; details: for GI%: 10.0 µM in one dose
# [7] = test system: MOLT-4; assay: NCI anticancer screening (SRB), Leukemia subpanel; format: cell-based, human; details: for GI%: 10.0 µM in one dose
# [8] = test system: SR; assay: NCI anticancer screening (SRB), Leukemia subpanel; format: cell-based, human; details: for GI%: 10.0 µM in one dose
# [9] = test system: EKVX; assay: NCI anticancer screening (SRB), Non-Small Cell Lung Cancer subpanel; format: cell-based, human; details: for GI%: 10.0 µM in one dose
# [10] = test system: SW-620; assay: NCI anticancer screening (SRB), Colon Cancer subpanel; format: cell-based, human; details: for GI%: 10.0 µM in one dose
# [11] = test system: SF-295; assay: NCI anticancer screening (SRB), CNS Cancer subpanel; format: cell-based, human; details: for GI%: 10.0 µM in one dose
# [12] = test system: SF-539; assay: as above; format: cell-based, human; details: for GI%: 10.0 µM in one dose
# [13] = test system: U251; assay: as above; format: cell-based, human; details: for GI%: 10.0 µM in one dose
# [14] = test system: MALME-3M; assay: NCI anticancer screening (SRB), Melanoma subpanel; format: cell-based, human; details: for GI%: 10.0 µM in one dose
# [15] = test system: M14; assay: NCI anticancer screening (SRB), Melanoma subpanel; format: cell-based, human; details: for GI%: 10.0 µM in one dose
# [16] = test system: MDA-MB-435; assay: NCI anticancer screening (SRB), Melanoma subpanel; format: cell-based, human; details: for GI%: 10.0 µM in one dose
# [17] = test system: SK-MEL-2; assay: NCI anticancer screening (SRB), Melanoma subpanel; format: cell-based, human; details: for GI%: 10.0 µM in one dose
# [18] = test system: UACC-62; assay: NCI anticancer screening (SRB), Melanoma subpanel; format: cell-based, human; details: for GI%: 10.0 µM in one dose
# [19] = test system: IGROV1; assay: NCI anticancer screening (SRB), Ovarian Cancer subpanel; format: cell-based, human; details: for GI%: 10.0 µM in one dose
# [20] = test system: OVCAR-8; assay: as above; format: cell-based, human; details: for GI%: 10.0 µM in one dose
# [21] = test system: SK-OV-3; assay: as above; format: cell-based, human; details: for GI%: 10.0 µM in one dose
# [22] = test system: CAKI-1; assay: NCI anticancer screening (SRB), Renal Cancer subpanel; format: cell-based, human; details: for GI%: 10.0 µM in one dose
# [23] = test system: RXF 393; assay: as above; format: cell-based, human; details: for GI%: 10.0 µM in one dose
# [24] = test system: TK-10; assay: as above; format: cell-based, human; details: for GI%: 10.0 µM in one dose
# [25] = test system: PC-3; assay: NCI anticancer screening (SRB), Prostate Cancer subpanel; format: cell-based, human; details: for GI%: 10.0 µM in one dose
# [26] = test system: DU-145; assay: as above; format: cell-based, human; details: for GI%: 10.0 µM in one dose
# [27] = test system: HS 578T; assay: NCI anticancer screening (SRB), Breast Cancer subpanel; format: cell-based, human; details: for GI%: 10.0 µM in one dose
# [28] = test system: BT-549; assay: as above; format: cell-based, human; details: for GI%: 10.0 µM in one dose
# [29] = test system: caspase-8; assay: Apoptotic markers assay, caspase-8 level in MCF-7 cells; format: cell-based, human; details: MCF-7 cells treated at IC50 concentrations; vs untreated control = 1
# Procedure: We measured the apoptosis promoter Bax levels, the apoptosis inhibitor Bcl−2, and the apoptosis coordination enzymes caspase-8 and caspase-9 [32].
# The apoptotic marker method was carried out using the reported procedure using MCF-7, the cancer cell line (Supplementary Materials). […]
# 7. Caspase-8 and 9 activation assay
# A breast carcinoma (MCF-7) cell line was obtained from ATCC. […]
# allowed cells to grow at 37 °C, stimulated with the compounds to be tested for caspase-8 or caspase-9 and lysed with Cell Extraction Buffer. Standard Diluent Buffer was used to dilute the lysate over the range of the assay and measure human active caspase-8 or caspase-9 content. (cells are Plated in a density of 1.2-1.8 X 10,000 cells/well in a volume of 100 µL complete growth medium + 100 µL of the tested compound per well in a 96-well plate for 24/48 h before the enzyme assay).
# 8. Evaluation of Bax and Bcl-2 expressions m RNA isolation was carried out using an RNeasy extraction kit, up to 1 X 107 cells. They were disrupted in Buffer RLT and homogenized. Ethanol was added to the lysate to promote the selective binding of RNA to the RNeasy membrane. Then, the sample was applied to the RNeasy
# [30] = biological target: HER2 (Homo sapiens, UniProt P04626); assay: HER2 tyrosine kinase inhibition assay (ADP-Glo)
# [31] = biological target: EGFR (Homo sapiens, UniProt P00533); assay: EGFR tyrosine kinase inhibition assay (Kinase-Glo MAX)
# [32] = test system: HOP-92; parameters: method as in https://dtp.cancer.gov/dtpstandard/dwindex/index.jsp; details: ref https://dtp.cancer.gov/dtpstandard/dwindex/index.jsp; cited from earlier work
# [33] = Homo sapiens, five concentrations
# EGFR, sequence (P00533 25-1210): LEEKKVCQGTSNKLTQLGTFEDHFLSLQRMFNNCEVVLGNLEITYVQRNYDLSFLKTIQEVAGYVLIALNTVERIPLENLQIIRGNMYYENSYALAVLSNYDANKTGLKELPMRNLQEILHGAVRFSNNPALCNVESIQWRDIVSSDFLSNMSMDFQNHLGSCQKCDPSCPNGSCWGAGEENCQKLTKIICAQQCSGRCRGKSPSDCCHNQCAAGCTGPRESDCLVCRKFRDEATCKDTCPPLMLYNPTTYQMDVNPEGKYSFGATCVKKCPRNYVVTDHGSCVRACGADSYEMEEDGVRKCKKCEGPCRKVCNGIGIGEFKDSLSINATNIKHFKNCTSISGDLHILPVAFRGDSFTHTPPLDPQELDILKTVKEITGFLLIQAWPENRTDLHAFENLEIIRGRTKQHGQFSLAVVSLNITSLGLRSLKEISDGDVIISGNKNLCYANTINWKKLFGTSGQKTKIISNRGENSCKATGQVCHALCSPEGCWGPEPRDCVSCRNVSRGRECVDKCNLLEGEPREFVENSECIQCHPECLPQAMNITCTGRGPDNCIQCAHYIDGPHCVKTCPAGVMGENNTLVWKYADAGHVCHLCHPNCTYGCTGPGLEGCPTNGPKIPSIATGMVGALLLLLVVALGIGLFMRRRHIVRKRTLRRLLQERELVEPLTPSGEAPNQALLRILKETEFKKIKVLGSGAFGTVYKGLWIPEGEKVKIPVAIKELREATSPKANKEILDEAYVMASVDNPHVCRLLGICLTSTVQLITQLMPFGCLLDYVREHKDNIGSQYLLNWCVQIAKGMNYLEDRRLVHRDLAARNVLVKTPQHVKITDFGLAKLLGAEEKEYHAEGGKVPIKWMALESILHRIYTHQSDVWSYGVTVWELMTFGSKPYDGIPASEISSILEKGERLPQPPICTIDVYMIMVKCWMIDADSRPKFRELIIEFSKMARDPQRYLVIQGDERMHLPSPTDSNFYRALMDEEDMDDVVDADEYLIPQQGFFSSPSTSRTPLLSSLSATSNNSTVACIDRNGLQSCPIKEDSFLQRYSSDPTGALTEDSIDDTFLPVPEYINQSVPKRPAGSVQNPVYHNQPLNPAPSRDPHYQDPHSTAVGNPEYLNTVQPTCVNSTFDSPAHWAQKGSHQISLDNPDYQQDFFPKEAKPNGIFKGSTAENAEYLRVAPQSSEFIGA
# HER2, sequence (P04626 23-1255): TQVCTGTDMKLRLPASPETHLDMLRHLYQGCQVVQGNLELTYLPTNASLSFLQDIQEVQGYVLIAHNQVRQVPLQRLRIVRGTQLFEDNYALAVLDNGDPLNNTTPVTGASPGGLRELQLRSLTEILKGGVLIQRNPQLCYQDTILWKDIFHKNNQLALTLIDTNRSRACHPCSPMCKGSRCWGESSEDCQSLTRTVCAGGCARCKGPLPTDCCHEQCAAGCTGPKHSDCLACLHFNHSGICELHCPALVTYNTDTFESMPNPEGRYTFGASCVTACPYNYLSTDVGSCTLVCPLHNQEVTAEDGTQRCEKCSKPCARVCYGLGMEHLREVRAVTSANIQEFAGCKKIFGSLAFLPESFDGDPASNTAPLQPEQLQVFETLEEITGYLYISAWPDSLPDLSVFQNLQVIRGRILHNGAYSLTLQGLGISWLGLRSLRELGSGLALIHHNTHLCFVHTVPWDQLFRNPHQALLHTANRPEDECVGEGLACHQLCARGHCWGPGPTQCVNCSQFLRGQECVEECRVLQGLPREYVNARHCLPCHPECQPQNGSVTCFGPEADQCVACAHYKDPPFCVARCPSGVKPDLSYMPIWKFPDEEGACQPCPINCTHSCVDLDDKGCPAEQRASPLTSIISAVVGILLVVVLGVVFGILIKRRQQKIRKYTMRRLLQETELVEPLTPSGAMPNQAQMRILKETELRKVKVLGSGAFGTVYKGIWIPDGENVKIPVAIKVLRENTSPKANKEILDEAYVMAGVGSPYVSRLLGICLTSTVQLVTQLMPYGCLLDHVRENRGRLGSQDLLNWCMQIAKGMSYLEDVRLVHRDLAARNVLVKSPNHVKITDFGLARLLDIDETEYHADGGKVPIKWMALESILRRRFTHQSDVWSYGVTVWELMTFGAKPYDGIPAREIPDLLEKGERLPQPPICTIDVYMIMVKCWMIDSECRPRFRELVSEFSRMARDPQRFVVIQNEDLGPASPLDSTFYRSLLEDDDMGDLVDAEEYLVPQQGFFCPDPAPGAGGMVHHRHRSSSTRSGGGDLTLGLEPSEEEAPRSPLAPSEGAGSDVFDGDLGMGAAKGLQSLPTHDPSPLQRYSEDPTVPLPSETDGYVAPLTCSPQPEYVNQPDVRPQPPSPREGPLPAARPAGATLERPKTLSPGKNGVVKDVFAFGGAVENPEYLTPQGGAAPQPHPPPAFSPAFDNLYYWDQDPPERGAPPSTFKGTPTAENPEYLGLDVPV
compound,measurement,setting,value
"Cc1ccc(-c2cc(C(F)(F)F)nn2-c2ccc(S(N)(=O)=O)cc2)cc1 [Celecoxib, celecoxib]",GI50,[1],15800 nM
same,GI50,[2],3980 nM
same,GI50,[3],15800 nM
CS(=O)(=O)Nc1ccc(C(=O)NN=Cc2ccccc2O)cc1 [Compound 7],GI%,[4],63%
same,GI%,[5],22%
same,GI%,[6],26%
same,GI%,[7],50%
same,GI%,[8],67%
same,GI%,[9],26%
same,GI%,[10],35%
same,GI%,[11],35%
same,GI%,[12],40%
same,GI%,[13],56%
same,GI%,[14],24%
same,GI%,[15],44%
same,GI%,[16],24%
same,GI%,[17],22%
same,GI%,[18],35%
same,GI%,[19],25%
same,GI%,[20],32%
same,GI%,[21],42%
same,GI%,[22],35%
same,GI%,[23],21%
same,GI%,[24],21%
same,GI%,[25],38%
same,GI%,[26],33%
same,GI%,[27],11%
same,GI%,[28],27%
same,"Casp8, Gene Expression (Fold Change)",[29],5.171 fold change
same,IC50,[30],183 ± 11 nM
same,IC50,[31],752 ± 50 nM
CCN(CC)c1ccc(C=NNC(=O)c2ccc(NS(C)(=O)=O)cc2)c(O)c1 [Compound 8],GI%,[4],94%
same,GI50,[4]; [33],177 nM
same,GI%,[5],99%
same,GI50,[5]; [33],300 nM
same,GI%,[6],86%
same,GI50,"[6]; Homo sapiens, K562, five concentrations",492 nM
same,GI%,[7],90%
same,GI50,[7]; [33],372 nM
same,GI%,[8],89%
same,GI50,[8]; [33],141 nM
same,GI%,[9],84%
same,GI50,[9]; [33],386 nM
same,GI%,[10],63%
same,GI50,[10]; [33],471 nM
same,GI%,[11],90%
same,GI50,[11]; [33],517 nM
same,GI%,[12],93%
same,GI50,[12]; [33],362 nM
same,GI%,[13],76%
same,GI50,"[13]; Homo sapiens, U-251, five concentrations",226 nM
same,GI%,[14],96%
same,GI50,[14]; [33],855 nM
same,GI%,[15],100%
same,GI50,[15]; [33],351 nM
same,GI%,[16],71%
same,GI50,[16]; [33],558 nM
same,GI%,[17],59%
same,GI50,[17]; [33],749 nM
same,GI%,[18],100%
same,GI50,[18]; [33],375 nM
same,GI%,[19],80%
same,GI50,"[19]; Homo sapiens, IGROV-1, five concentrations",544 nM
same,GI%,[20],88%
same,GI50,[20]; [33],312 nM
same,GI%,[21],66%
same,GI50,[21]; [33],450 nM
same,GI%,[22],81%
same,GI50,[22]; [33],464 nM
same,GI%,[23],> 100%
same,GI50,[23]; [33],1040 nM
same,GI%,[24],52%
same,GI50,[24]; [33],1050 nM
same,GI%,[25],68%
same,GI50,[25]; [33],368 nM
same,GI%,[26],69%
same,GI50,[26]; [33],685 nM
same,GI%,[27],44%
same,GI50,[27]; [33],1470 nM
same,GI%,[28],88%
same,GI50,[28]; [33],569 nM
same,"Casp8, Gene Expression (Fold Change)",[29],6.456 fold change
same,IC50,[30],464 ± 18 nM
same,IC50,[31],166 ± 33 nM
"C#Cc1cccc(Nc2ncnc3cc(OCCOC)c(OCCOC)cc23)c1 [Erlotinib, erlotinib]",GI50,[1],25100 nM
same,GI50,[2],25100 nM
same,GI50,[32],3980 nM
"COc1cc2ncnc(Nc3ccc(F)c(Cl)c3)c2cc1OCCCN1CCOCC1 [Gefitinib, gefitinib]",GI50,[32],316 nM
same,GI50,[3],3160 nM
